Where a name gives a salt, the structure may show the parent alone.
How the values were obtained:
[1] = biological target: T1, p65 (RelA) (Homo sapiens, UniProt Q04206); experiment: TransAM NF-κB family DNA binding ELISA, p65; assay type: biochemical; settings: binding to NF-κB consensus oligonucleotide
T1 construct: purchased Active Motif
Procedure: (§1) The binding activity of NF-κB heterodimer or homodimer subunits from activated nuclear extracts or purified recombinant NF-κB proteins exposed to the drug compounds was evaluated using the TransAM NF-κB Family binding ELISA (Active Motif). 3-5 μg of nuclear extracts from TNFα activated Hela or Raji cells (Active Motif) or 20 ng of purified recombinant proteins (p65 and p50 from Active Motif, p52 from Santa Cruz) were incubated for 1 hour at room temperature with 20 μL drug compounds diluted in Complete Lysis buffer without DTT. Treated samples were then transferred to 30 μL Complete Binding Buffer (with DTT) in microplate wells pre-coated with the NF-κB consensus oligonucleotide. […] The plate was incubated for 1 hour at room temperature with gentle shaking and then washed 3 times with 200 μL 1× Wash Buffer. NF-κB p65, p50, p52, RelB, or c-Rel subunits bound to the plate were detected with 100 μL of the primary antibody (diluted 1:1000 in 1× Antibody Buffer) specific for that subunit. The plate was incubated for 1 hour at room temperature and then washed 3 times with 200 μL 1× Wash Buffer. Next, 100 μL of a HRP conjugated goat anti-rabbit antibody (diluted 1:1,000 in 1× Antibody Buffer) was added to each well. The plate was incubated for 1 hour at room temperature and then washed 4 times with 200 μL 1× Wash Buffer. 100 μL of room temperature Developing Solution was added to each well. The reaction was allowed to develop for 2-10 minutes until a medium dark blue color developed (depending on the subunit activity in the lot of extract or lot of recombinant protein used) and then the reaction was stopped with 100 μL Stop Solution yielding a yellow color. Absorbance was recorded using a Becton-Dickinson DTX 880 Multimode Detector at 450 nm with a reference wavelength subtracted at 620 nm. FIGS. 2, 3 and 4 illustrate the effect of Example 10 on inhibiting RelA, RelB and c-Rel binding to NF-κB sites.

[2] = biological target: T2, c-Rel (Homo sapiens, UniProt Q04864); experiment: TransAM NF-κB family DNA binding ELISA, c-Rel; assay type: biochemical; settings: for IC50: binding to NF-κB consensus oligonucleotide, cells without % sign
T2 sequence (Q04864 2-619 limits assumed): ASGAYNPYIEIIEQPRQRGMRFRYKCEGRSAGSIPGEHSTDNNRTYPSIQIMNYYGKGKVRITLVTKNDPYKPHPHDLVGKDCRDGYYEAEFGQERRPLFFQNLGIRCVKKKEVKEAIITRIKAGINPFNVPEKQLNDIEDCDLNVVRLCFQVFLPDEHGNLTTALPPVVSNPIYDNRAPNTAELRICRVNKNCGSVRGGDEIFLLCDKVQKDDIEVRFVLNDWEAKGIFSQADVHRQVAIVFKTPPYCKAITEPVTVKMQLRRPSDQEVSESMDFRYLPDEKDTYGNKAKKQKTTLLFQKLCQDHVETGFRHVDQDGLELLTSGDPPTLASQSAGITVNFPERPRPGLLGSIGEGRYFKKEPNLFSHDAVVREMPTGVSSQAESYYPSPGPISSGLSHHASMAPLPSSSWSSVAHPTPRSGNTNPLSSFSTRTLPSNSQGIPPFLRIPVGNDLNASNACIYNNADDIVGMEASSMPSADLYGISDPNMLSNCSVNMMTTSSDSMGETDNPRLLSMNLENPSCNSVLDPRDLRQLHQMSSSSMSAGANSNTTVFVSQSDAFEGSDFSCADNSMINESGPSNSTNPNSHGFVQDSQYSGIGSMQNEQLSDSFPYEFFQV
Procedure: as §1

[3] = biological target: T3, RelB (Homo sapiens, UniProt Q01201); experiment: TransAM NF-κB family DNA binding ELISA, RelB; assay type: biochemical; settings: for IC50: binding to NF-κB consensus oligonucleotide, cells without % sign
T3 sequence (Q01201 1-579): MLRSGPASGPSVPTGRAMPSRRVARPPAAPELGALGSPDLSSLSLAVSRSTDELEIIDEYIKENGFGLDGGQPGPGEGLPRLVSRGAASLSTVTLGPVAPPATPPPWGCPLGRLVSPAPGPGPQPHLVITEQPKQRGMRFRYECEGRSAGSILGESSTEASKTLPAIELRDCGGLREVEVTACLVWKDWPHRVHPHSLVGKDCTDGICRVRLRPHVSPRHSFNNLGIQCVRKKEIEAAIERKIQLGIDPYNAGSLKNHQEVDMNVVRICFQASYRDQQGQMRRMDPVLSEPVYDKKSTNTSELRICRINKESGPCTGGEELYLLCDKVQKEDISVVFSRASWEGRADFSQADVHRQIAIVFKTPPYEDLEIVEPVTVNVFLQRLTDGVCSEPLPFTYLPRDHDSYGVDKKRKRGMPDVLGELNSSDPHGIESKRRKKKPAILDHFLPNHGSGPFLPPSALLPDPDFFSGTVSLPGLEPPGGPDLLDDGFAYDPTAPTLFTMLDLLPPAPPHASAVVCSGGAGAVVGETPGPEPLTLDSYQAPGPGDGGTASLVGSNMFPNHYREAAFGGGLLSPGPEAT
Procedure: as §1

[4] = system: NF-κB; experiment: 293/NFkB-luc reporter cell assay (TNF-α induced luciferase expression); assay type: cell-based; settings: 293 cells; for EC50: pNF-κB-luc reporter, 2 h pretreatment, 20 ng/ml TNF-α 18 h
Procedure: (§2) Two reporter cell assays were used to determine the ability of the compound of Example 10 to inhibit NF-κB driven transcription. The first assay was a 293-cell based assay with a stably integrated pNF-κB-luc reporter plasmid containing 3 NF-κB promoter elements. The second assay was a 293-cell based assay with a stably integrated pTRH1-NF-κB-dscGFP reporter containing 4 NF-κB promoter elements. Cells were treated with 0, 0.2, 1, 10, 20 and 40 μM of the compound of Example 10 for 2 hours then were induced with 20 ng/ml TNF-α for 18 hours. Following the induction, luminescence or fluorescence was quantified using a Beckman-Coulter 2300 plate reader. […] These values represent the median value generated from three independent experiments. As a control, 0.5% DMSO treated and untreated cells were compared to verify that the compound of Example 10 had no effect on the expression of luciferase or in the readout of the assay. There was a slight decrease in the output from the assay in the DMSO treated population although it was not statistically significant. As a result of the controls, the decrease in activity in the drug treated samples was compared to the DMSO control sample.

[5] = system: NF-κB; experiment: NF-κB/293/GFP reporter cell assay (TNF-α induced GFP expression); assay type: cell-based; settings: for EC50: pTRH1-NF-κB-dscGFP reporter, 2 h pretreatment, 20 ng/ml TNF-α 18 h, read-out: NF-KB/293/GFP EC50
Procedure: as §2

[6] = Homo sapiens, HEK293, 293 cells

T1 sequence (Q04206 whole entry): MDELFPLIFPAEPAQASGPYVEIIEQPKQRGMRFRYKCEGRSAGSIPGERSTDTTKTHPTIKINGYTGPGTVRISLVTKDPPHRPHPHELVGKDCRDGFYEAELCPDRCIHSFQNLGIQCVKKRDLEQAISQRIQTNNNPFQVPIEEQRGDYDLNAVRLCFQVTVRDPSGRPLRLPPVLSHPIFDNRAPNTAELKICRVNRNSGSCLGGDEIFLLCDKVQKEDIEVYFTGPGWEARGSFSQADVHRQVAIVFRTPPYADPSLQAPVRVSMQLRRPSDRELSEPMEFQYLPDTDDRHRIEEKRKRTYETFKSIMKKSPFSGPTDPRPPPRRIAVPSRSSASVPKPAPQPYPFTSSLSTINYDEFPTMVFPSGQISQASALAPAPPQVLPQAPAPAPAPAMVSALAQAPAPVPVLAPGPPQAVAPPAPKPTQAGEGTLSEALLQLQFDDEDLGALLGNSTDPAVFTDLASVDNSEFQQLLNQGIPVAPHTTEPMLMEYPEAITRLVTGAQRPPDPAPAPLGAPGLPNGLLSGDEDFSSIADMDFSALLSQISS

SMILES | IC50 [1] | IC50 [2] | IC50 [3] | EC50 ([4]; 293/NFkB-luc) | EC50 [5, 6] | inhibition at 5 µM [2] | inhibition at 5 µM [3] | EC50 ([4]; trifluoroacetate) | EC50 ([5]; 293 cells, trifluoroacetate) | IC50 ([4]; Homo sapiens, HEK293, median of three independent experiments, 20 ng/ml TNF-α, read-out: median IC50, inhibition of expression of the luciferase gene) | IC50 ([5]; Homo sapiens, HEK293, median of three independent experiments, 293 cells, 20 ng/ml TNF-α, read-out: median IC50, inhibition of expression of the Green fluorescent protein gene)
O=C(NC1=CC(=O)C2OC2C1O)c1ccc(C(F)(F)F)cc1O (racemic) [Example 1, 2-hydroxy-N-(2-hydroxy-5-oxo-7-oxabicyclo[4.1.0]hept-3-en-3-yl)-4-(trifluoromethyl)benzamide] | 66.3 µM | – | – | 36 µM | 3.4 µM | 1% | 6% | – | – | – | –
O=C(NC1=CC(=O)C2OC2C1O)c1ccc2ccccc2c1O (racemic) [Example 8, (±)-1-hydroxy-N-(2-hydroxy-5-oxo-7-oxabicyclo[4.1.0]hept-3-en-3-yl)-2-naphthamide] | 45.2 µM | – | – | 7.1 µM | 7.1 µM | 3% | 15% | – | – | – | –
O=C(NC1=CC(=O)C2OC2C1O)c1ccc(Cl)cc1O (racemic) [Example 2, (±)-4-chloro-2-hydroxy-N-(2-hydroxy-5-oxo-7-oxabicyclo[4.1.0]hept-3-en-3-yl)benzamide] | 26.3 µM | – | – | 12 µM | 7 µM | 7% | 18% | – | – | – | –
Cc1cccc(C(=O)NC2=CC(=O)C3OC3C2O)c1O (racemic) [Example 4, (±)-2-hydroxy-N-(2-hydroxy-5-oxo-7-oxabicyclo[4.1.0]hept-3-en-3-yl)-3-methylbenzamide] | 36.3 µM | – | – | 19 µM | 18 µM | 0% | 9% | – | – | – | –
Cc1ccc(C(=O)NC2=CC(=O)C3OC3C2O)c(O)c1 (racemic) [Example 3, (±)-2-hydroxy-N-(2-hydroxy-5-oxo-7-oxabicyclo[4.1.0]hept-3-en-3-yl)-4-methylbenzamide] | 17 µM | – | – | 20 µM | 9 µM | 5% | 10% | – | – | – | –
COc1ccc(C(=O)NC2=CC(=O)C3OC3C2O)c(O)c1 (racemic) [Example 5, (±)-2-hydroxy-N-(2-hydroxy-5-oxo-7-oxabicyclo[4.1.0]hept-3-en-3-yl)-4-methoxybenzamide] | 14.2 µM | – | – | 32 µM | 6.1 µM | 6% | 17% | – | – | – | –

The next lines start with the values.

IC50 [1] | IC50 [2] | IC50 [3] | EC50 ([4]; 293/NFkB-luc) | EC50 [5, 6] | inhibition at 5 µM [2] | inhibition at 5 µM [3] | EC50 ([4]; trifluoroacetate) | EC50 ([5]; 293 cells, trifluoroacetate) | IC50 ([4]; Homo sapiens, HEK293, median of three independent experiments, 20 ng/ml TNF-α, read-out: median IC50, inhibition of expression of the luciferase gene) | IC50 ([5]; Homo sapiens, HEK293, median of three independent experiments, 293 cells, 20 ng/ml TNF-α, read-out: median IC50, inhibition of expression of the Green fluorescent protein gene) | SMILES
0.91 µM | 1.9 µM | 1 µM | 4.6 µM | 1.3 µM | – | – | – | – | – | – | COc1cc(N(C)C)ccc1C(=O)NC1=CC(=O)C2OC2C1O (racemic) [Example 20, (±)-4-(dimethylamino)-N-(2-hydroxy-5-oxo-7-oxabicyclo[4.1.0]hept-3-en-3-yl)-2-methoxybenzamide]
241 µM | 3.7 µM | 3.9 µM | 8 µM | 2.4 µM | – | – | – | – | – | – | O=C(NC1=CC(=O)C2OC2C1O)c1cc2cc(Br)ccc2cc1O (racemic) [Example 15, (±)-7-bromo-3-hydroxy-N-(2-hydroxy-5-oxo-7-oxabicyclo[4.1.0]hept-3-en-3-yl)-2-naphthamide]
479 µM | 16 µM | 10 µM | 7.7 µM | 5 µM | – | – | – | – | – | – | COc1ccc2cc(O)c(C(=O)NC3=CC(=O)C4OC4C3O)cc2c1 (racemic) [Example 11, (±)-3-hydroxy-N-(2-hydroxy-5-oxo-7-oxabicyclo[4.1.0]hept-3-en-3-yl)-7-methoxy-2-naphthamide]
1.5 µM | 8.1 µM | 2.1 µM | 8.7 µM | 2.6 µM | – | – | – | – | – | – | COc1c(C(=O)NC2=CC(=O)C3OC3C2O)ccc(F)c1F (racemic) [Example 16, (±)-3,4-difluoro-N-(2-hydroxy-5-oxo-7-oxabicyclo[4.1.0]hept-3-en-3-yl)-2-methoxybenzamide]
17.7 µM | – | – | 27 µM | 5.2 µM | 20% | 32% | – | – | – | – | O=C(NC1=CC(=O)C2OC2C1O)c1cc(Br)ccc1O (racemic) [Example 9, (±)-5-bromo-2-hydroxy-N-(2-hydroxy-5-oxo-7-oxabicyclo[4.1.0]hept-3-en-3-yl)benzamide]
295 µM | 232 µM | 82 µM | 3.7 µM | 6.7 µM | – | – | – | – | – | – | Cc1ccc(C(C)C)c(C(=O)NC2=CC(=O)C3OC3C2O)c1O (racemic) [Example 17, (±)-2-hydroxy-N-(2-hydroxy-5-oxo-7-oxabicyclo[4.1.0]hept-3-en-3-yl)-6-isopropyl-3-methylbenzamide]
3 µM | 14 µM | 3.3 µM | – | – | – | – | 7.5 µM | 1.7 µM | – | – | CN(C)c1ccc(C(=O)NC2=CC(=O)C3OC3C2O)c(O)c1 (racemic) [Example 19, (±)-4-(dimethylamino)-2-hydroxy-N-(2-hydroxy-5-oxo-7-oxabicyclo[4.1.0]hept-3-en-3-yl)benzamide trifluoroacetate]
3.9 µM | 17 µM | 23 µM | 8.7 µM | 2.5 µM | – | – | – | – | 8.7 µM | 2.5 µM | CN(C)c1ccc(C(=O)NC2=CC(=O)C3OC3C2O)c(O)c1 (racemic) [Example 10, (±)-4-(dimethylamino)-2-hydroxy-N-(2-hydroxy-5-oxo-7-oxabicyclo[4.1.0]hept-3-en-3-yl)benzamide]

Source: patent US20120046357A1, “Benzamide and Napthamide Derivatives Inhibiting Nuclear Factor-Kappa (B) - (NK-kB)” (Profectus Biosciences, Inc., priority 2009, published 2012)
